Results reported in US20090215036A1, “Genetic Alterations Useful For The Response Prediction of Malignant Neoplasia to Taxane-Based Medical Treatments” (Bayer HealthCare AG, priority 2004, published 2009).

Tests used:
[1] = tested on: breast cancer patients; assay: Kaplan-Meier disease free survival of the two therapy arms (E-T-CMF vs. E-CMF) in respect to gene amplifications
Experimental: These samples were formalin-fixed and paraffin-embedded material from primary tumours. A detailed clinical report about all patients was available. The anonymized data included all medical, therapeutical, clinical, histo- and pathological, and follow-up information incl. relapse or survival time.
More than 60 genes were analyzed according to the method disclosed in examples 1 and 2 by quantitative PCR after nucleic acid extraction from formaldehyde-fixed, paraffin-embedded tissue slides. Alterations of the analyzed genes were determined by comparison with at least two reference genes. Reference genes included mainly MMP28 and HNRPDL, but also HBB, B2M, SOD2. […] The reference genes should be independent from the ARCHEON alterations occurring in the neoplastic lesions and should not be affected by chromosomal alterations such as amplifications and deletions. […] By measuring genes located on the X-chromosome (e.g. SRY), the Y-chromosome (e.g. Xist) and on chromosome 21, defined copy numbers of 1, 2 and 3 genes could be determined as internal control during each run for standardization. […] The calculated performance differences were used as a filter for the measurements within the target tissues, i.e. primer/probe differences of each individual gene as depicted in the control cells and tissues were subtracted from each individual gene measurement performed in the target tissue. […]

[2] = tested on: breast cancer patients; assay: Bivariate DNA and/or RNA marker combinations, +Taxol arm vs. -Taxol arm, quadrant analysis with Kaplan-Meier plots; conditions: GR3 + 4

CC(=O)O[C@H]1C(=O)[C@@]2(C)[C@H]([C@H](OC(=O)c3ccccc3)[C@]3(O)C[C@H](OC(=O)[C@H](O)[C@@H](NC(=O)c4ccccc4)c4ccccc4)C(C)=C1C3(C)C)[C@]1(OC(C)=O)CO[C@@H]1C[C@@H]2O [Taxol]
outcome of Taxol therapy in patients with gene amplification ([1]; FIGS. 2a-c, ErbB4 and VEGF amplified, alone or as a marker set of two genes): benefit from Taxol therapy
correlation of gene amplification to Taxol resistance ([1]; TRAG3 amplification): no strong correlation
Benefit ([2]; ABCG2_R thr 11.0 / SIVA_D thr 1.3, Quadrant LH): OUT: Always beneficial
Benefit ([2]; AFP_R thr −2.2 / EMS1_R thr 18.9, Quadrant HL): OUT: Taxol beneficial
Benefit ([2]; AFP_R thr −2.2 / FLT1_D thr 3.3, Quadrant HL): OUT: Taxol beneficial
Benefit ([2]; AFP_R thr −2.2 / TRAG3_D thr 1.2, Quadrant HH): OUT: Taxol beneficial
Benefit ([2]; AFP_R thr −2.2 / TWIST1_D thr 1.1, Quadrant HH): OUT: Taxol beneficial
Benefit ([2]; AFP_R thr −2.5 / ISGF3G_D thr 3.7, Quadrant HL): OUT: Taxol beneficial
Benefit ([2]; BUB3_D thr 2.0 / MST1_D thr 2.1, Quadrant HH): OUT: Always beneficial
Benefit ([2]; CCNE2_R thr 13.4 / MST1_D thr 2.0, Quadrant LL): IN: Always beneficial
Benefit ([2]; CIDEB_R thr 13.7 / ERBB3_R thr 14.7, Quadrant LH): IN: Taxol beneficial
Benefit ([2]; CIDEB_R thr 13.7 / RIN1_D thr 2.1, Quadrant LL): IN: Taxol beneficial
Benefit ([2]; EMS1_R thr 15.9 / RIN1_D thr 2.1, Quadrant HL): IN: Taxol beneficial
Benefit ([2]; EMS1_R thr 16.9 / ERBB3_R thr 14.7, Quadrant HH): IN: Taxol beneficial
Benefit ([2]; ERBB3_R thr 14.7 / BRMS1_D thr 4.6, Quadrant HL): IN: Taxol beneficial
Benefit ([2]; ERBB3_R thr 14.7 / MUC1_D thr 2.6, Quadrant HL): IN: Taxol beneficial
Benefit ([2]; ERBB3_R thr 14.7 / VEGF_D thr 3.9, Quadrant HL): IN: Taxol beneficial
Benefit ([2]; ESR1_R thr 12.3 / CA9_R thr 1.4, Quadrant HH): OUT: Taxol beneficial
Benefit ([2]; FNTA_R thr 11.9 / ERBB2_D thr 1.8, Quadrant HH): OUT: Always beneficial
Benefit ([2]; FolR2_D thr 2.9 / VEGF_D thr 2.6, Quadrant HL): IN: Taxol beneficial
Benefit ([2]; GSTP1_D thr 2.2 / ING1L_D thr 1.6, Quadrant LH): OUT: Always beneficial
Benefit ([2]; GSTP1_D thr 2.4 / MST1_D thr 2.1, Quadrant LH): OUT: Always beneficial
Benefit ([2]; KISS I_D thr 1.3 / ERBB2_D thr 1.8, Quadrant HH): OUT: Always beneficial
Benefit ([2]; MYC2_D thr 2.1 / ERBB3_R thr 14.4, Quadrant HH): IN: Taxol beneficial
Benefit ([2]; MYC2_D thr 2.2 / CASP10_D thr 2.2, Quadrant HL): IN: Taxol beneficial
Benefit ([2]; PGR_R thr 9.1 / RIN1_D thr 2.1, Quadrant HL): IN: Taxol beneficial
Benefit ([2]; PGR_R thr 14.3 / ERBB3_R thr 14.7, Quadrant LH): IN: Taxol beneficial
Benefit ([2]; PVT1_D thr 1.3 / RIN1_D thr 2.1, Quadrant HL): IN: Taxol beneficial
Benefit ([2]; RAD54B_D thr 1.2 / ERBB2_D thr 1.8, Quadrant HH): OUT: Always beneficial
Benefit ([2]; RIN1_D thr 2.1 / EMS1_D thr 1.2, Quadrant LH): IN: Taxol beneficial
Benefit ([2]; RIN1_D thr 2.1 / VEGF_D thr 1.5, Quadrant LH): IN: Taxol beneficial
Benefit ([2]; STAU_R thr 17.6 / FLT1_R thr 3.5, Quadrant LL): OUT: Taxol beneficial
Benefit ([2]; TONDO_R thr 12.2 / ErbB4_D thr 2.2, Quadrant LH): IN: Taxol beneficial
Benefit ([2]; VEGFa_R thr 13.0 / BOP1_D thr 2.0, Quadrant HH): OUT: Always beneficial
Benefit ([2]; VEGFa_R thr 14.1 / AFP_R thr −1.0, Quadrant LH): IN: Always beneficial
